Literature values in paper PMC8287861 (Frontiers in Microbiology, 2021).
Converted amounts (≈) assume the structure as drawn.

What was measured:
Parameters in all cases: method as in Lomovskaya et al. (2020b)
PAM4864 SFC-1 = conditions: PAM4864, SFC-1, class A-CARB; ref Lomovskaya et al. (2020b)
PAM4846 OXA-9 = conditions: PAM4846, OXA-9, class D; ref Lomovskaya et al. (2020b)
PAM4186 CMY-2 = conditions: PAM4186, CMY-2, class C; ref Lomovskaya et al. (2020b)
PAM4819 CTX-M-2 = conditions: PAM4819, CTX-M-2, class A; ref Lomovskaya et al. (2020b)
PAM4842 PER-2 = conditions: PAM4842, PER-2, class A; ref Lomovskaya et al. (2020b)
PAM4888 IMP-4 = conditions: PAM4888, IMP-4, class B1; ref Lomovskaya et al. (2020b)
PAM4889 IMP-26 = conditions: PAM4889, IMP-26, class B1; ref Lomovskaya et al. (2020b)
PAM4884 ADC-181 = conditions: PAM4884, ADC-181, class C; ref Lomovskaya et al. (2020b)
PAM4879 CcrA1 = conditions: PAM4879, CcrA1, class B1; ref Lomovskaya et al. (2020b)
PAM4744 SME-2 = conditions: PAM4744, SME-2, class A-CARB; ref Lomovskaya et al. (2020b)
PAM4743 CTX-M-15 = conditions: PAM4743, CTX-M-15, class A; ref Lomovskaya et al. (2020b)
PAM4792 OXA-2 = conditions: PAM4792, OXA-2, class D; ref Lomovskaya et al. (2020b)
PAM4820 CTX-M-25 = conditions: PAM4820, CTX-M-25, class A; ref Lomovskaya et al. (2020b)
PAM4825 MIR-1 = conditions: PAM4825, MIR-1, class C; ref Lomovskaya et al. (2020b)
PAM4912 VEB-3 = conditions: PAM4912, VEB-3, class A; ref Lomovskaya et al. (2020b)
PAM4907 PER-4 = conditions: PAM4907, PER-4, class A; ref Lomovskaya et al. (2020b)
PAM4885 SPM-1 = conditions: PAM4885, SPM-1, class B1; ref Lomovskaya et al. (2020b)
PAM4689 KPC-3 = conditions: PAM4689, KPC-3, class A-CARB; ref Lomovskaya et al. (2020b)
PAM4196 IMP-13 = conditions: PAM4196, IMP-13, class B1; ref Lomovskaya et al. (2020b)
PAM4910 VEB-2 = conditions: PAM4910, VEB-2, class A; ref Lomovskaya et al. (2020b)
PAM4822 CTX-M-27 = conditions: PAM4822, CTX-M-27, class A; ref Lomovskaya et al. (2020b)
PAM4795 VIM-1 = conditions: PAM4795, VIM-1, class B1; ref Lomovskaya et al. (2020b)
PAM4890 IMP-19 = conditions: PAM4890, IMP-19, class B1; ref Lomovskaya et al. (2020b)
PAM4794 NMC-1 = conditions: PAM4794, NMC-1, class A-CARB; ref Lomovskaya et al. (2020b)
PAM4908 VEB-1 = conditions: PAM4908, VEB-1, class A; ref Lomovskaya et al. (2020b)
PAM4798 VIM-2 = conditions: PAM4798, VIM-2, class B1; ref Lomovskaya et al. (2020b)

SMILES | MIC (PAM4864 SFC-1) | MIC (PAM4846 OXA-9) | MIC (PAM4186 CMY-2) | MIC (PAM4819 CTX-M-2) | MIC (PAM4842 PER-2) | MIC (PAM4888 IMP-4) | MIC (PAM4889 IMP-26) | MIC (PAM4884 ADC-181) | MIC (PAM4879 CcrA1) | MIC (PAM4744 SME-2) | MIC (PAM4743 CTX-M-15) | MIC (PAM4792 OXA-2) | MIC (PAM4820 CTX-M-25) | MIC (PAM4825 MIR-1) | MIC (PAM4912 VEB-3) | MIC (PAM4907 PER-4) | MIC (PAM4885 SPM-1) | MIC (PAM4689 KPC-3) | MIC (PAM4196 IMP-13) | MIC (PAM4910 VEB-2) | other results
CC(C)(O/N=C(\C(=O)N[C@@H]1C(=O)N2C(C(=O)[O-])=C(C[n+]3ccccc3)CS[C@H]12)c1csc(N)n1)C(=O)O [Ceftazidime, ceftazidime] | 2 mg/L (≈ 3.66 µM) | 0.25 mg/L (≈ 0.457 µM) | 16 mg/L (≈ 29.3 µM) | 1 mg/L (≈ 1.83 µM) | >64 mg/L | >64 mg/L | >64 mg/L | 8 mg/L (≈ 14.6 µM) | 4 mg/L (≈ 7.32 µM) | 0.5 mg/L (≈ 0.915 µM) | 32 mg/L (≈ 58.5 µM) | 8 mg/L (≈ 14.6 µM) | 8 mg/L (≈ 14.6 µM) | 16 mg/L (≈ 29.3 µM) | >64 mg/L | >64 mg/L | >64 mg/L | >64 mg/L | 64 mg/L (≈ 117 µM) | >64 mg/L | MIC (PAM4822 CTX-M-27): 64 mg/L (≈ 117 µM); MIC (PAM4795 VIM-1): 64 mg/L (≈ 117 µM); MIC (PAM4890 IMP-19): >64 mg/L; MIC (PAM4794 NMC-1): 1 mg/L (≈ 1.83 µM); MIC (PAM4908 VEB-1): >64 mg/L; MIC (PAM4798 VIM-2): 16 mg/L (≈ 29.3 µM)
CCN1CCN(C(=O)N[C@@H](C(=O)N[C@@H]2C(=O)N3[C@@H]2SC(C)(C)[C@@H]3C(=O)O)c2ccccc2)C(=O)C1=O [Piperacillin, piperacillin] | >64 mg/L | 8 mg/L (≈ 15.5 µM) | 8 mg/L (≈ 15.5 µM) | 64 mg/L (≈ 124 µM) | 1 mg/L (≈ 1.93 µM) | 0.5 mg/L (≈ 0.966 µM) | 0.125 mg/L (≈ 0.242 µM) | 1 mg/L (≈ 1.93 µM) | 0.25 mg/L (≈ 0.483 µM) | 8 mg/L (≈ 15.5 µM) | >64 mg/L | 64 mg/L (≈ 124 µM) | >64 mg/L | 8 mg/L (≈ 15.5 µM) | 8 mg/L (≈ 15.5 µM) | 0.5 mg/L (≈ 0.966 µM) | 32 mg/L (≈ 61.8 µM) | >64 mg/L | 0.5 mg/L (≈ 0.966 µM) | 16 mg/L (≈ 30.9 µM) | MIC (PAM4822 CTX-M-27): >64 mg/L; MIC (PAM4795 VIM-1): 16 mg/L (≈ 30.9 µM); MIC (PAM4890 IMP-19): 0.25 mg/L (≈ 0.483 µM); MIC (PAM4794 NMC-1): 16 mg/L (≈ 30.9 µM); MIC (PAM4908 VEB-1): 8 mg/L (≈ 15.5 µM); MIC (PAM4798 VIM-2): 16 mg/L (≈ 30.9 µM)
